ChEMBL document CHEMBL1131541, “New synthetic inhibitors of microtubule depolymerization” (1998)
Values belong to the compound of their own block, whether it stands above or below them. The source made the active and inactive calls. The calls are words filed in the database; no cut-off is given here.

Legend:
PC-3 = experiment: Compound was tested for growth inhibitory activity against PC-3 cell line; type: functional; conditions: Homo sapiens
[1] = target: Tubulin beta chain (Bos taurus) (UniProt Q6B856); experiment: Effect on microtubule stabilization isolated from bovine brain
Chain of Tubulin beta chain (Bos taurus) (Q6B856 whole entry): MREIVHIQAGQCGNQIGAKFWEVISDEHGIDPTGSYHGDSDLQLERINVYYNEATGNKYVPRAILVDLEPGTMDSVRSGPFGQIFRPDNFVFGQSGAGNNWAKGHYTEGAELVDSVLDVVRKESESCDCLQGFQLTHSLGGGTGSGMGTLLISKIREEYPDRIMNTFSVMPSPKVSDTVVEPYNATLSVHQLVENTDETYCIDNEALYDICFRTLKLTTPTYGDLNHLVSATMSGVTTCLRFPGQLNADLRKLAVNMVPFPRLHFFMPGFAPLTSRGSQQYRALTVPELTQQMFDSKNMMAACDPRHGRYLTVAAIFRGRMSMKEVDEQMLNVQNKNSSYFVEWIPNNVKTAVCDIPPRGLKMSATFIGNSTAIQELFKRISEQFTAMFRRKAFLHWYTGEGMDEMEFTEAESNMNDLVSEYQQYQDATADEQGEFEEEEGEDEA

SK-MEL-2 [2] = experiment: Compound was tested for growth inhibitory activity against SK-MEL-2; type: functional; conditions: Homo sapiens
SK-OV-3 = experiment: Compound was tested for growth inhibitory activity against SK-OV-3 cell line; type: functional; conditions: Homo sapiens
OVCAR-8 = experiment: Compound was tested for growth inhibitory activity against OVCAR-8 cell line; type: functional; conditions: Homo sapiens
U-251 = experiment: Compound was tested for growth inhibitory activity against U251 cell line; type: functional; conditions: Homo sapiens
SR = experiment: Compound was tested for growth inhibitory activity against SR cell line; type: functional; conditions: Homo sapiens
RXF 393 = experiment: Compound was tested for growth inhibitory activity against RXF 393 cell line; type: functional; conditions: Homo sapiens
Hs-578T = experiment: Compound was tested for growth inhibitory activity against HS 578T cell line; type: functional; conditions: Homo sapiens
UO-31 = experiment: Compound was tested for growth inhibitory activity against UO-31 cell line; type: functional; conditions: Homo sapiens
UACC-62 = experiment: Compound was tested for growth inhibitory activity against UACC-62 cell line; type: functional; conditions: Homo sapiens
HCC 2998 = experiment: Compound was tested for growth inhibitory activity against HCC2998 cell line; type: functional; conditions: Homo sapiens
KM12 = experiment: Compound was tested for growth inhibitory activity against KM12 cell line; type: functional; conditions: Homo sapiens
NCI/ADR-RES = experiment: Compound was tested for growth inhibitory activity against MCF-7/ADR cell line; type: functional; conditions: Homo sapiens
MCF7 = experiment: Compound was tested for growth inhibitory activity against MCF-7 cell line; type: functional; conditions: Homo sapiens
786-0 = experiment: Compound was tested for growth inhibitory activity against 786-0 cell line; type: functional; conditions: Homo sapiens
MOLT-4 = experiment: Compound was tested for growth inhibitory activity against MOLT-4 cell line; type: functional; conditions: Homo sapiens
BT-549 = experiment: Compound was tested for growth inhibitory activity against BT-549 cell line; type: functional; conditions: Homo sapiens
NCI-H522 = experiment: Compound was tested for growth inhibitory activity against NCI-H522 cell line; type: functional; conditions: Homo sapiens
SK-MEL-5 = experiment: Compound was tested for growth inhibitory activity against SK-MEL-5 cell line; type: functional; conditions: Homo sapiens
COLO 205 = experiment: Compound was tested for growth inhibitory activity against COLO 205 cell line; type: functional; conditions: Homo sapiens
SF-268 = experiment: Compound was tested for growth inhibitory activity against SF-268 cell line; type: functional; conditions: Homo sapiens
NCI-H226 = experiment: Compound was tested for growth inhibitory activity against NCI-H226 cell line; type: functional; conditions: Homo sapiens
SNB-19 = experiment: Compound was tested for growth inhibitory activity against SNB-19 cell line; type: functional; conditions: Homo sapiens
HCT-15 = experiment: Compound was tested for growth inhibitory activity against HCT-15 cell line; type: functional; conditions: Homo sapiens
A498 = experiment: Compound was tested for growth inhibitory activity against A498 cell line; type: functional; conditions: Homo sapiens
HL-60 = experiment: Compound was tested for growth inhibitory activity against HL-60 cell line; type: functional; conditions: Homo sapiens
MDA-MB-435 = experiment: Compound was tested for growth inhibitory activity against MDA-MB-435 cell line; type: functional; conditions: Homo sapiens
SF-539 = experiment: Compound was tested for growth inhibitory activity against SF-539 cell line; type: functional; conditions: Homo sapiens
HT-29 = experiment: Compound was tested for growth inhibitory activity against HT-29 cell line; type: functional; conditions: Homo sapiens
HOP-62 = experiment: Compound was tested for growth inhibitory activity against HOP-62 cell line; type: functional; conditions: Homo sapiens
OVCAR-3 = experiment: Compound was tested for growth inhibitory activity against OVCAR-3 cell line; type: functional; conditions: Homo sapiens
SF-295 = experiment: Compound was tested for growth inhibitory activity against SF-295 cell line; type: functional; conditions: Homo sapiens
M14 = experiment: Compound was tested for growth inhibitory activity against M14 cell line; type: functional; conditions: Homo sapiens
[3] = target: Tubulin beta chain (Bos taurus) (UniProt Q6B856); experiment: Compound was tested for its effect on microtubule stabilization isolated from bovine brain; NS: not significant
[4] = target: Tubulin beta chain (Bos taurus) (UniProt Q6B856); experiment: Compound was tested for its effect on microtubule stabilization isolated from bovine brain; not significant
[5] = target: Tubulin beta chain (Bos taurus) (UniProt Q6B856); experiment: Compound was tested for its effect on microtubule stabilization isolated from bovine brain; compound was inactive
SK-MEL-2 [6] = experiment: Compound was tested for growth inhibitory activity against SK-MEL-2 cell line; type: functional; conditions: Homo sapiens

Compound: C=C1C[C@@]23O[C@]2(c2ccccc21)C1CC(OC(=O)[C@H](O)[C@@H](NC(=O)NCC)c2ccccc2)C3(C)C1(C)C (stereo partly specified)
Relative stability [3]: inactive

Compound: C=C1C[C@@]23O[C@]2(c2ccccc21)C1CC(OC(=O)[C@H](O)[C@@H](NC(=O)OCC)c2ccc(OCc4ccccc4)cc2)C3(C)C1(C)C (stereo partly specified)
Relative stability [3]: inactive

Compound: CCOC(=O)N[C@@H](c1ccsc1)[C@@H](O)C(=O)OC1CC2C(C)(C)C1(C)[C@@]13C[C@](O)(COC(C)=O)c4ccccc4[C@@]21O3 (stereo partly specified)
Relative stability [3]: inactive

Compound: C=C1C[C@@]23O[C@]2(c2ccccc21)C1CC(OC(=O)[C@H](O)[C@@H](NC(=O)CC(C)(C)C)c2ccccc2)C3(C)C1(C)C (stereo partly specified)
Relative stability [4]: inactive

Compound: CC(=O)O[C@H]1C(=O)[C@@]2(C)[C@H]([C@H](OC(=O)c3ccccc3)[C@]3(O)C[C@H](OC(=O)[C@H](O)[C@@H](NC(=O)c4ccccc4)c4ccccc4)C(C)=C1C3(C)C)[C@]1(OC(C)=O)CO[C@@H]1C[C@@H]2O [PACLITAXEL]
GI50 (PC-3): 3.98 nM
GI50 (SK-OV-3): 10 nM
GI50 (OVCAR-8): 5.01 nM
GI50 (U-251): 3.98 nM
GI50 (SR): 2.51 nM
GI50 (RXF 393): 7.94 nM
GI50 (Hs-578T): 3.16 nM
GI50 (UO-31): 1000 nM
GI50 (UACC-62): 3.98 nM
GI50 (HCC 2998): 3.98 nM
GI50 (KM12): 3.16 nM
GI50 (NCI/ADR-RES): 3160 nM
GI50 (MCF7): 3.16 nM
GI50 (SK-MEL-2 [6]): 5.01 nM
GI50 (786-0): 19.9 nM
GI50 (MOLT-4): 3.98 nM
GI50 (BT-549): 0.00631 µM
GI50 (NCI-H522): 3.16 nM
GI50 (SK-MEL-5): 3.98 nM
GI50 (COLO 205): 3.16 nM
GI50 (SF-268): 7.94 nM
GI50 (NCI-H226): 31.6 nM
GI50 (SNB-19): 10 nM
GI50 (HCT-15): 200 nM
GI50 (A498): 0.0794 µM
GI50 (HL-60): 5.01 nM
GI50 (MDA-MB-435): 2.51 nM
GI50 (SF-539): 3.16 nM
GI50 (HT-29): 2.51 nM
GI50 (HOP-62): 0.0158 µM
GI50 (OVCAR-3): 3.16 nM
GI50 (SF-295): 15.8 nM
GI50 (M14): 10 nM

Compound: COC(=O)N[C@@H](c1ccc(O)cc1)[C@@H](O)C(=O)OC1CC2C(C)(C)C1(C)[C@@]13CC(C)c4ccccc4[C@@]21O3 (stereo partly specified)
Relative stability [1]: 293%

Compound: CCOC(=O)N[C@@H](c1ccncc1)[C@@H](O)C(=O)OC1CC2C(C)(C)C1(C)[C@@]13C[C@](O)(CO)c4ccccc4[C@@]21O3 (stereo partly specified)
Relative stability [1]: 327%

Compound: C=C1C[C@@]23O[C@]2(c2ccccc21)C1CC(OC(=O)[C@H](O)[C@@H](NC(=O)OCC)c2ccc(C)cc2)C3(C)C1(C)C (stereo partly specified)
Relative stability [1]: 142%

Compound: C=C1C[C@@]23O[C@]2(c2ccccc21)C1CC(OC(=O)[C@H](O)[C@@H](NC(=O)OCC)c2ccc(F)cc2)C3(C)C1(C)C (stereo partly specified)
Relative stability [1]: 152%

Compound: C=C1C[C@@]23O[C@]2(c2ccccc21)C1CC(OC(=O)[C@H](O)[C@@H](NC(=O)CCC)c2ccccc2)C3(C)C1(C)C (stereo partly specified)
Relative stability [1]: 114%

Continued, in another order:

GI50 (PC-3): 3020 nM
Relative stability [1]: -5%
GI50 (SK-MEL-2 [2]): 2570 nM
GI50 (SK-OV-3): 1910 nM
GI50 (OVCAR-8): 2450 nM
GI50 (U-251): 3980 nM
GI50 (HCC 2998): 525 nM
GI50 (MCF7): 2820 nM
GI50 (786-0): 2750 nM
GI50 (MOLT-4): 4680 nM
GI50 (BT-549): 22.9 µM
GI50 (NCI-H522): 813 nM
GI50 (SK-MEL-5): 2340 nM
GI50 (COLO 205): 1860 nM
GI50 (NCI-H226): 977 nM
GI50 (HCT-15): 977 nM
GI50 (HL-60): 871 nM
GI50 (MDA-MB-435): 589 nM
GI50 (HT-29): 447 nM
GI50 (OVCAR-3): 1860 nM
Compound: COC(=O)N[C@@H](c1ccncc1)[C@@H](O)C(=O)OC1CC2C(C)(C)C1(C)[C@@]13CC(C)c4ccccc4[C@@]21O3 (stereo partly specified)
GI50 (SR): 1450 nM
GI50 (RXF 393): 4570 nM
GI50 (Hs-578T): 1480 nM
GI50 (UO-31): 562 nM
GI50 (UACC-62): 2630 nM
GI50 (KM12): 933 nM
GI50 (NCI/ADR-RES): 1910 nM
GI50 (SF-268): 3800 nM
GI50 (SNB-19): 2190 nM
GI50 (A498): 12.3 µM
GI50 (SF-539): 4680 nM
GI50 (HOP-62): 6.17 µM
GI50 (SF-295): 2090 nM
GI50 (M14): 1740 nM

Relative stability [3]: inactive
Compound: CCOC(=O)N[C@@H](c1ccc(OCc2ccccc2)cc1)[C@@H](O)C(=O)OC1CC2C(C)(C)C1(C)[C@@]13C[C@H](C)c4ccccc4[C@@]21O3 (stereo partly specified)

Relative stability [3]: inactive
Compound: CCNC(=O)N[C@@H](c1ccccc1)[C@@H](O)C(=O)OC1CC2C(C)(C)C1(C)[C@@]13C[C@H](C)c4ccccc4[C@@]21O3 (stereo partly specified)

Relative stability [5]: inactive
Compound: C[C@@H]1C[C@@]23O[C@]2(c2ccccc21)C1CC(OC(=O)[C@H](O)[C@@H](NC(=O)OC(C)(C)C)c2ccccc2)C3(C)C1(C)C (stereo partly specified)

Relative stability [3]: inactive
Compound: CCOC(=O)N[C@@H](c1ccccc1)[C@@H](O)C(=O)OC1CC2C(C)(C)C1(C)[C@@]13C[C@@H](C)c4ccccc4[C@@]21O3 (stereo partly specified)

Relative stability [3]: inactive
Compound: CCCCOC(=O)N[C@@H](c1ccccc1)[C@@H](O)C(=O)OC1CC2C(C)(C)C1(C)[C@@]13C[C@H](C)c4ccccc4[C@@]21O3 (stereo partly specified)

Relative stability [1]: 209%
Compound: CCOC(=O)N[C@@H](c1ccccc1)[C@@H](O)C(=O)OC1CC2C(C)(C)C1(C)[C@@]13C[C@H](C)c4ccccc4[C@@]21O3 (stereo partly specified)

Relative stability [1]: 119%
Compound: CCOC(=O)N[C@@H](c1cccnc1)[C@@H](O)C(=O)OC1CC2C(C)(C)C1(C)[C@@]13C[C@H](C)c4ccccc4[C@@]21O3 (stereo partly specified)

Relative stability [1]: 130%
Compound: CCCCNC(=O)N[C@@H](c1ccccc1)[C@@H](O)C(=O)OC1CC2C(C)(C)C1(C)[C@@]13C[C@H](C)c4ccccc4[C@@]21O3 (stereo partly specified)

Relative stability [1]: 228%
Compound: C=C1C[C@@]23O[C@]2(c2ccccc21)C1CC(OC(=O)[C@H](O)[C@@H](NC(=O)OCC)c2ccccc2)C3(C)C1(C)C (stereo partly specified)

Relative stability [1]: 306%
Compound: CCOC(=O)N[C@@H](c1ccc(O)cc1)[C@@H](O)C(=O)OC1CC2C(C)(C)C1(C)[C@@]13C[C@H](C)c4ccccc4[C@@]21O3 (stereo partly specified)
